Data taken from patent US6268377A, “Method for treating androgen-related conditions” (Merck & Co., Inc., priority 1999, dated 2001).
“Also recorded” adds a separate entry of the source. Where two headings read alike, the source gives them in different places.

Experiments:
5α-reductase 2 = conditions: isozyme predominating in the prostate, cited from earlier work
5α-reductase 1 = conditions: isozyme predominating in sebaceous glands of facial and skin tissue; G. Harris et al. 1992; cited from earlier work
[1] = system: men with clinical benign prostatic hyperplasia (BPH); experiment: Four-year double-blind placebo-controlled clinical study of finasteride, analysed by concomitant calcium channel blocker use; assay type: in vivo, human; conditions: for Hazard Ratio (95% CI), AUR / Hazard Ratio (95% CI), Precipitated AUR / Hazard Ratio (95% CI), Spontaneous AUR / Hazard Ratio (95% CI), Surgery / Hazard Ratio (95% CI), Surgery and AUR: finasteride vs placebo; for Urologic events: AUR (incidence) / Urologic events: Precipitated AUR (incidence) / Urologic events: Spontaneous AUR (incidence) / Urologic events: Surgery (incidence) / Urologic events: Surgery and AUR (incidence): 5 mg finasteride daily, four-year study
Protocol: A total of 3040 men with clinical benign prostatic hyperplasia (BPH) diagnosed on the basis of moderate-to-severe symptoms, a decreased peak urinary flow rate (less than 15 mL/sec with a voided volume of 150 mL or more) and an enlarged prostate gland by digital rectal examination (DRE) were enrolled in a four-year study comparing finasteride with placebo. Men receiving alpha blocking agents or antiandrogens, and men with a history of chronic prostatitis, recurrent urinary tract infections, prostate or bladder cancer or surgery, or a serum prostate specific antigen (PSA) over 10 ng/mL were excluded. Men with serum PSA concentrations between 4.0 and 9.9 ng/mL had to have a negative prostate biopsy prior to enrollment.
After a one-month single-blind placebo lead-in, men were randomly assigned to receive placebo or 5 mg of finasteride (17β-(N-tert-butylcarbamoyl)-3-oxo-4-aza-5α-androst-1-en-3-one)daily in a four year, double-blind placebo-controlled study. BPH-related outcomes including symptoms, bothersomeness, adverse events and urinary flow rates, were assessed every 4 months. Serum PSA was measured every 4 months in the first year and then every 8 months at a central laboratory. Physical examination and routine hematological and serum chemistry tests were performed yearly. Magnetic resonance imaging (MRI) was performed at baseline and subsequently yearly in a subset of 10% of patients. All MRI images were read by a central radiologist blinded to treatment allocation and time of imaging.
Acute urinary retention (AUR) and surgery for BPH were predefined secondary end-points. The endpoint committee, blinded to treatment group, reviewed all study-related documents related to episodes of acute urinary retention, and all prostate surgeries for BPH, excluding surgery for prostate cancer. The endpoint committee classified episodes of AUR as spontaneous versus precipitated (when contributing factors such as urinary tract infection, surgery anesthesia, ingestion of alpha sympathomimetic drugs or anticholinergics were identified).
For a relatively clean comparison, data from patients in categories (a) and (b) were analyzed and patients in category (c) were excluded.

[2] = finasteride treated patients also on calcium channel blockers vs not on calcium channel blockers
[3] = patients who did not take a calcium channel blocker
[4] = patients who took a calcium channel blocker for more than 365 days
[5] = patients who did not take a calcium channel blocker, N = 1181
[6] = patients who took a calcium channel blocker for more than 365 days, N = 236

For `CC(C)(C)NC(=O)[C@H]1CC[C@H]2[C@@H]3CC[C@H]4NC(=O)C=C[C@]4(C)[C@H]3CC[C@]12C` [Finasteride, 17β-(N-tert-butylcarbamoyl)-3-oxo-4-aza-5α-androst-1-ene-3-one], the “inhibition of 5α-reductase type 2 (human prostate enzyme)” value (5α-reductase 2) is given as “potent inhibitor”, the “inhibition of 5α-reductase type 2 (human prostate enzyme)” value (5α-reductase 2; listed as finasteride) is given as “potently inhibited” and the “sensitivity of 5α-reductase type 1 to finasteride” value (5α-reductase 1) is given as “relatively insensitive”. The “rate of improvement in symptom score by month 16” value ([1]; finasteride only group) was “continued to increase”, the “change of PSA (prostate specific antigen) versus time in the study” value ([1]; finasteride plus calcium channel blocker for more than 365 days, compared with finasteride only and placebo groups (FIG. 1)) was “greater decrease in PSA; also recorded: greatest decrease in PSA” and the “change in Quasi-AUA symptom score versus time in the study” value ([1]; finasteride plus calcium channel blocker for more than 365 days, compared with finasteride only and placebo groups (FIG. 2)) was “initally improved much faster; also recorded: greatest decrease in symptom score”. For the same compound, the “change in maximum urinary flow rate versus time in the study” value ([1]; finasteride plus calcium channel blocker for more than 365 days, compared with finasteride only and placebo groups (FIG. 3)) was “greater increase in maximum urinary flow rate; also recorded: greatest increase in maximum flow rate after 12 months”, the “change in prostate volume versus time in the study” value ([1]; finasteride plus calcium channel blocker for more than 365 days, compared with finasteride only and placebo groups (FIG. 4)) was “greater decrease; also recorded: greatest decrease in prostate volume” and the “rate of improvement in symptom score by month 16” value ([1]; finasteride plus calcium channel blocker group) was “decreased rate of improvement in symptom score”. The “incidence of spontaneous acute urinary retention (AUR) (comparison)” value [1, 2] was “lower”, the “incidence of urologic surgery (comparison)” value [1, 2] was “lower” and the “Hazard Ratio (95% CI), AUR” value [1, 3] was 0.44 (0.30 to 0.64). The “Hazard Ratio (95% CI), Precipitated AUR” value [1, 3] was 0.55 (0.31 to 0.99), the “Hazard Ratio (95% CI), Spontaneous AUR” value [1, 3] was 0.38 (0.23 to 0.62) and the “Hazard Ratio (95% CI), Surgery” value [1, 3] was 0.42 (0.31 to 0.57). The “Hazard Ratio (95% CI), Surgery and AUR” value [1, 3] was 0.48 (0.37 to 0.62), the “Hazard Ratio (95% CI), AUR” value [1, 4] was 0.46 (0.20 to 1.10) and the “Hazard Ratio (95% CI), Precipitated AUR” value [1, 4] was 0.50 (0.19 to 1.31). The “Hazard Ratio (95% CI), Spontaneous AUR” value [1, 4] was 0.24 (0.05 to 1.21), the “Hazard Ratio (95% CI), Surgery” value [1, 4] was 0.55 (0.25 to 1.22) and the “Hazard Ratio (95% CI), Surgery and AUR” value [1, 4] was 0.53 (0.28 to 1.00). For the same compound, the “Urologic events: AUR (incidence)” value [1, 5] was 2.6%, the “Urologic events: Precipitated AUR (incidence)” value [1, 5] was 1.4% and the “Urologic events: Spontaneous AUR (incidence)” value [1, 5] was 1.4%. For the same compound, the “Urologic events: Surgery (incidence)” value [1, 5] was 4.4%, the “Urologic events: Surgery and AUR (incidence)” value [1, 5] was 6.4% and the “Urologic events: AUR (incidence)” value [1, 6] was 3.0%. The “Urologic events: Precipitated AUR (incidence)” value [1, 6] was 2.5%, the “Urologic events: Spontaneous AUR (incidence)” value [1, 6] was 0.4% and the “Urologic events: Surgery (incidence)” value [1, 6] was 3.8%. The “Urologic events: Surgery and AUR (incidence)” value [1, 6] was 5.9%.
